Test results from PubChem BioAssay (NCI).
Several values for one entry are separate records, joined by “and”; a condition that tells them apart may be missing. Equal values may be shown once.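 1) Cells in 96-well plates. 2) Compound, 48 h, 5 concentrations. 3) Linear interpolation between surrounding doses. 4) Unreached endpoint = highest concentration. The concentration for 50% growth inhibition is given as GI50. TGI: concentration producing complete growth inhibition.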

Key:
Assay in all cases: inhibition of tumour cell growth, NCI panel, 48 h
786-0 renal = system: 786-0 renal
A549 NSCLC = system: A549 NSCLC
NCI-H23 lung = system: NCI-H23 lung
OVCAR-3 ovarian = system: OVCAR-3 ovarian
SK-OV-3 ovarian = system: SK-OV-3 ovarian
SW-620 colon = system: SW-620 colon
NCI-H460 lung = system: NCI-H460 lung
RXF 393 renal = system: RXF 393 renal
HS 578T breast = system: HS 578T breast
MCF7 breast = system: MCF7 breast

Cc1cc(C)nc(NS(=O)(=O)c2ccc(NC(=O)c3ccc(Cl)c4c(Nc5ccc(S(=O)(=O)N=C(N)N)cc5)c5ccccc5nc34)cc2)n1
TGI (786-0 renal): 96.1 µM | TGI (A549 NSCLC): > 100 µM | TGI (NCI-H23 lung): 17.5 µM | TGI (OVCAR-3 ovarian): > 100 µM | TGI (SK-OV-3 ovarian): > 100 µM | TGI (SW-620 colon): 76 µM

COc1cc(CC(C(=O)O)C(=O)O)c(OC)cc1CC(C(=O)O)C(=O)O
TGI (786-0 renal): > 100 µM | TGI (A549 NSCLC): > 100 µM | TGI (NCI-H23 lung): > 100 µM | TGI (NCI-H460 lung): > 100 µM | TGI (OVCAR-3 ovarian): > 100 µM | TGI (RXF 393 renal): > 100 µM | TGI (SK-OV-3 ovarian): > 100 µM | TGI (SW-620 colon): > 100 µM

Cc1ccc(NC(=O)CC/C(CC(=O)C(C)(C)C)=N\Nc2ccc([N+](=O)[O-])cc2[N+](=O)[O-])cc1C
TGI (786-0 renal): > 100 µM | TGI (A549 NSCLC): > 100 µM | TGI (NCI-H23 lung): > 100 µM | TGI (NCI-H460 lung): > 100 µM | TGI (RXF 393 renal): > 100 µM | TGI (SK-OV-3 ovarian): > 100 µM | TGI (SW-620 colon): > 100 µM

CN(C)CCNC(=O)c1cccc2ncc(-c3ccccc3)nc12
TGI (786-0 renal): > 100 µM | TGI (A549 NSCLC): > 74.9 µM | TGI (NCI-H23 lung): 32.2 µM | TGI (NCI-H460 lung): 19.6 µM | TGI (OVCAR-3 ovarian): 66.8 µM | TGI (RXF 393 renal): 18 µM | TGI (SK-OV-3 ovarian): 82.6 µM | TGI (SW-620 colon): 63.5 µM

Cc1c(C2Cc3ccccc3N2)c2ccccc2n1C (stereo not given)
TGI (786-0 renal): > 100 µM | TGI (A549 NSCLC): > 100 µM | TGI (NCI-H23 lung): > 100 µM | TGI (NCI-H460 lung): > 100 µM | TGI (OVCAR-3 ovarian): > 100 µM | TGI (RXF 393 renal): > 100 µM | TGI (SK-OV-3 ovarian): > 100 µM | TGI (SW-620 colon): > 100 µM

CC(=O)ON(C(C)=O)C1C(COC(c2ccccc2)(c2ccccc2)c2ccccc2)OC2OC3(CCCC3)OC21 (stereo not given)
TGI (786-0 renal): > 75.2 µM | TGI (A549 NSCLC): > 100 µM | TGI (NCI-H23 lung): > 100 µM | TGI (NCI-H460 lung): > 100 µM | TGI (OVCAR-3 ovarian): > 100 µM | TGI (RXF 393 renal): 60.4 µM | TGI (SK-OV-3 ovarian): > 100 µM | TGI (SW-620 colon): > 100 µM

O=C1[C@H](Cl)[C@H]2c3cc4ccccc4nc3Oc3ccccc3N12
TGI (786-0 renal): > 100 µM | TGI (A549 NSCLC): > 100 µM | TGI (NCI-H23 lung): > 100 µM | TGI (NCI-H460 lung): > 100 µM | TGI (OVCAR-3 ovarian): > 100 µM | TGI (SK-OV-3 ovarian): > 100 µM | TGI (SW-620 colon): > 100 µM

COc1ccc(NC(=O)CCc2cc(C(C)(C)C)n[nH]2)cc1
TGI (786-0 renal): > 100 µM | TGI (A549 NSCLC): > 100 µM | TGI (NCI-H23 lung): > 100 µM | TGI (NCI-H460 lung): > 100 µM | TGI (OVCAR-3 ovarian): > 100 µM | TGI (RXF 393 renal): > 100 µM | TGI (SK-OV-3 ovarian): > 100 µM | TGI (SW-620 colon): > 100 µM

CN(C)CCC1(C2=CCCC2)CC/C(=C\c2ccccc2Cl)C1=O (stereo not given)
TGI (786-0 renal): 25.7 µM | TGI (A549 NSCLC): 28.4 µM | TGI (NCI-H23 lung): 30 µM | TGI (NCI-H460 lung): 31 µM | TGI (OVCAR-3 ovarian): 28.9 µM | TGI (RXF 393 renal): 17.5 µM | TGI (SW-620 colon): 25.2 µM

CC(=N)N(C)O
TGI (786-0 renal): > 100 µM | TGI (A549 NSCLC): > 100 µM | TGI (NCI-H23 lung): > 100 µM | TGI (NCI-H460 lung): > 100 µM | TGI (OVCAR-3 ovarian): > 100 µM | TGI (RXF 393 renal): > 100 µM | TGI (SK-OV-3 ovarian): > 100 µM

CCCCCCCCCCCCCC(=O)OCC1OC(n2cc(F)c(=O)[nH]c2=O)C(N)C(OC(=O)CCCCCCCCCCCCC)C1O (stereo not given)
TGI (786-0 renal): > 100 µM | TGI (A549 NSCLC): > 100 µM | TGI (NCI-H23 lung): > 100 µM | TGI (NCI-H460 lung): > 100 µM | TGI (OVCAR-3 ovarian): > 100 µM | TGI (RXF 393 renal): > 100 µM | TGI (SK-OV-3 ovarian): > 100 µM | TGI (SW-620 colon): > 100 µM

COc1cc(/C=C\c2ccc(OC(C)=O)cc2)cc(OC)c1OC
TGI (786-0 renal): > 100 µM | TGI (A549 NSCLC): > 100 µM | TGI (NCI-H23 lung): 13.2 µM | TGI (NCI-H460 lung): > 100 µM | TGI (OVCAR-3 ovarian): > 100 µM | TGI (SK-OV-3 ovarian): > 100 µM | TGI (SW-620 colon): > 100 µM

O=C(O)CCSC(=O)Nc1ccccc1Cl
TGI (786-0 renal): > 100 µM | TGI (A549 NSCLC): > 100 µM | TGI (NCI-H23 lung): > 100 µM | TGI (NCI-H460 lung): > 100 µM | TGI (OVCAR-3 ovarian): > 100 µM | TGI (RXF 393 renal): > 100 µM | TGI (SK-OV-3 ovarian): > 100 µM | TGI (SW-620 colon): > 100 µM

COc1ccc2c(c1)N(CCO)C1=C(C(=O)OC1)C2c1ccccc1 (stereo not given)
GI50 (786-0 renal): 2.7 µM | TGI (786-0 renal): > 50 µM | GI50 (A549 NSCLC): 2.12 µM | TGI (A549 NSCLC): > 50 µM | GI50 (HS 578T breast): 1.39 µM | TGI (HS 578T breast): 4.99 µM | GI50 (MCF7 breast): 1.86 µM | TGI (MCF7 breast): > 50 µM | GI50 (NCI-H23 lung): 1.94 µM | TGI (NCI-H23 lung): > 50 µM | GI50 (NCI-H460 lung): 1.77 µM | TGI (NCI-H460 lung): 12.5 µM | GI50 (OVCAR-3 ovarian): 1.18 µM | TGI (OVCAR-3 ovarian): 2.47 µM | GI50 (SK-OV-3 ovarian): 1.9 µM | TGI (SK-OV-3 ovarian): > 50 µM | GI50 (SW-620 colon): 1.64 µM | TGI (SW-620 colon): > 50 µM

COc1ccc2c(c1)C(=O)c1c-2n(CCCN)c(=O)c2cc(OC)c(OC)cc12
GI50 (786-0 renal): 0.146 µM | TGI (786-0 renal): 0.445 µM | GI50 (A549 NSCLC): 0.0267 µM | TGI (A549 NSCLC): 0.182 µM | GI50 (HS 578T breast): 2.2 µM | TGI (HS 578T breast): 4.81 µM | GI50 (NCI-H460 lung): < 0.01 µM | TGI (NCI-H460 lung): > 100 µM | GI50 (OVCAR-3 ovarian): 0.203 µM | TGI (OVCAR-3 ovarian): 1.38 µM | GI50 (RXF 393 renal): 0.399 µM | TGI (RXF 393 renal): 1.88 µM | GI50 (SK-OV-3 ovarian): 0.499 µM | TGI (SK-OV-3 ovarian): 10.7 µM | GI50 (SW-620 colon): 0.0554 µM | TGI (SW-620 colon): 1.98 µM

COc1ccc(/C=c2/sc3n(c2=O)NC(c2ccc(Cl)cc2)NN=3)cc1 (stereo not given)
TGI (786-0 renal): > 100 µM | TGI (A549 NSCLC): > 100 µM | TGI (NCI-H23 lung): > 100 µM | TGI (NCI-H460 lung): > 100 µM | TGI (OVCAR-3 ovarian): > 100 µM | TGI (RXF 393 renal): > 100 µM | TGI (SK-OV-3 ovarian): > 100 µM | TGI (SW-620 colon): > 100 µM

C/C(CCn1[nH]c(=O)ccc1=O)=N\Nc1ccc([N+](=O)[O-])cc1[N+](=O)[O-]
TGI (786-0 renal): > 100 µM | TGI (A549 NSCLC): > 100 µM | TGI (NCI-H23 lung): > 100 µM | TGI (NCI-H460 lung): > 100 µM | TGI (OVCAR-3 ovarian): > 100 µM | TGI (RXF 393 renal): > 100 µM | TGI (SW-620 colon): > 100 µM

C#CCN(N=O)C(=O)NCCCC(NC(C)=O)C(=O)NCc1ccccc1 (stereo not given)
TGI (786-0 renal): > 100 µM | TGI (A549 NSCLC): > 100 µM | TGI (NCI-H23 lung): > 100 µM | TGI (NCI-H460 lung): > 100 µM | TGI (OVCAR-3 ovarian): > 100 µM | TGI (RXF 393 renal): > 100 µM | TGI (SK-OV-3 ovarian): > 100 µM | TGI (SW-620 colon): > 100 µM

CC(=O)C1CCC2C3CC=C4CC(SC(=N)N)CCC4(C)C3CCC12C (stereo not given)
GI50 (786-0 renal): 1.64 µM | TGI (786-0 renal): 3.29 µM | GI50 (A549 NSCLC): 1.82 µM | TGI (A549 NSCLC): 3.61 µM | GI50 (HS 578T breast): 2.56 µM | TGI (HS 578T breast): 11.3 µM | GI50 (NCI-H23 lung): 2.02 µM | TGI (NCI-H23 lung): 5.34 µM | GI50 (NCI-H460 lung): 1.58 µM | TGI (NCI-H460 lung): 3.09 µM | GI50 (RXF 393 renal): 1.66 µM | TGI (RXF 393 renal): 3.63 µM | GI50 (SK-OV-3 ovarian): 4.19 µM | TGI (SK-OV-3 ovarian): 18 µM | GI50 (SW-620 colon): 1.62 µM | TGI (SW-620 colon): 3.16 µM

N#Cc1cc(NC(=O)c2ccccc2)c(=O)n2c1[nH]c1ccccc12
TGI (786-0 renal): > 100 µM | TGI (A549 NSCLC): > 100 µM | TGI (NCI-H23 lung): 57.7 µM | TGI (NCI-H460 lung): > 100 µM | TGI (OVCAR-3 ovarian): 80.7 µM | TGI (RXF 393 renal): 50.7 µM | TGI (SK-OV-3 ovarian): 90.4 µM | TGI (SW-620 colon): > 100 µM

Nc1ccc2c(c1)Oc1c(F)c(F)cc3c(=O)c(C(=O)O)cn-2c13
TGI (786-0 renal): > 100 µM | TGI (A549 NSCLC): > 100 µM | TGI (NCI-H23 lung): > 100 µM | TGI (OVCAR-3 ovarian): 96.6 µM | TGI (RXF 393 renal): > 100 µM | TGI (SK-OV-3 ovarian): > 100 µM | TGI (SW-620 colon): > 100 µM

COc1ccc(/C=C\c2cc(OC)c(OC)c(OC)c2)c(O)c1O
TGI (786-0 renal): 16.3 µM | GI50 (A549 NSCLC): 0.0754 µM | TGI (A549 NSCLC): > 70.1 µM and 88.7 µM | GI50 (MCF7 breast): 0.05 µM | GI50 (NCI-H23 lung): 0.0598 µM and 0.0848 µM | GI50 (NCI-H460 lung): 0.106 µM | TGI (NCI-H460 lung): 9.22 µM and 4.42 µM | GI50 (OVCAR-3 ovarian): 0.0695 µM and 0.0832 µM | TGI (OVCAR-3 ovarian): 6.47 µM and 0.77 µM | GI50 (RXF 393 renal): < 0.0322 µM and 0.111 µM | TGI (RXF 393 renal): 36 µM and 6.31 µM | GI50 (SK-OV-3 ovarian): 0.586 µM and 1.68 µM | TGI (SK-OV-3 ovarian): 15.1 µM and 48.3 µM | GI50 (SW-620 colon): 0.0715 µM | TGI (SW-620 colon): 16.9 µM and 49.9 µM
